From patent US5081131A, “Omega-((hetero)alkyl)benz(cd)-indol-2-amines” (American Cyanamid Company, priority 1988, dated 1992)
Counter-ions that a name gives are not always drawn.

What was measured:
[1] = molecular target: T1, thromboxane synthetase enzyme (Rattus norvegicus, UniProt P49430); assay: Thromboxane synthetase enzyme inhibition (TXB2 formation in washed platelets, RIA); format: cell-based, spontaneously hypertensive rat; conditions: 1×10^-4 Molar, SHR platelets, 10 min at 37° C.; for inhibition at 100 µM: read-out: % Inhibition (Thromboxane Synthetase Enzyme Inhibition)
T1 construct: endogenous in cells; host or cells: washed platelets from arterial blood of male Okamoto-Aoki spontaneously hypertensive rats (animals from Taconic Farms, Germantown, N.Y.)
T1 sequence (P49430 1-533): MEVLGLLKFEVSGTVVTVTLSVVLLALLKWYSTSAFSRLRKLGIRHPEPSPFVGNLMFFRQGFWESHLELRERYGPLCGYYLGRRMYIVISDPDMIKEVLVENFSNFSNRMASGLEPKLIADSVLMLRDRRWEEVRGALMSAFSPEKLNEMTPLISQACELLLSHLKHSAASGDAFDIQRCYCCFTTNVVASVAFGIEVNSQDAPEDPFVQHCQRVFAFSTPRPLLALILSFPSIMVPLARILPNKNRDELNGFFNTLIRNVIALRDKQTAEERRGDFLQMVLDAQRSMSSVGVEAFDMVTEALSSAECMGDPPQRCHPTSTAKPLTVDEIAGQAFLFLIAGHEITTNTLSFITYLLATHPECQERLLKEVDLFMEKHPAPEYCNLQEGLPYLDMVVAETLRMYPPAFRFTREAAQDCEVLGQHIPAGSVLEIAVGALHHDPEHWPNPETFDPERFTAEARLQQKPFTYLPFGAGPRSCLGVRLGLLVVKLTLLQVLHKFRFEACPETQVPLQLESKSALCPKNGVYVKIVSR
Experimental: The blood was diluted with 3 ml cold saline and centrifuged at room temperature for 15 min at 468×g. The platelet rich plasma (PRP) was separated. The platelets were isolated by certrifuging the PRP for 10 minutes at 1060×g and washed in 4 ml cold oxygenated Krebs phosphate buffer, pH 7.4. The chilled platelets recovered from centrifuging at 800×g for 10 minutes were resuspended in oxygenated Krebs phosphate buffer and diluted to contain 4.0-6.0×10^4 platelets/micro-liters. The inhibition of TX formation was studied by determining the concentration of thromboxane B2 (TXB2), the stable hydrolysis product of TXA2. Assay samples prepared on ice, contained 200 micro-liters platelet suspension, 50 micro-liters saline, and 50 micro-liters […] (saline) or drug under study. The test drug (0.003 mole) was dissolved in 5 ml of saline. […] The assay samples were incubated for 10 minutes at 37° C. in a metabolic shaker at about 60 rpm. The reaction was terminated by immersing the tubes in an ice bath and adding 50 micro-liters of 0.5M citric acid. The samples were centrifuged for 10 minutes at 2000 rpm at 4° C., and the supernatants were decanted.

[2] = test system: thevetin-induced arrhythmia in guinea pigs; assay: Thevetin (cardiac glycoside)-induced arrhythmia in guinea pigs; format: in vivo, guinea pig; conditions: for Time (Minutes) Before Induced Arrhythmia: saline 22.91±0.5 minutes
Experimental: Male guinea pigs, weighing 300-500 g each, from Summit View Farms, Belvidere, N.J., were anesthetized by intraperitoneal adminstration of urethan at 1500 mg/kg. The animals were then restrained in a supine position. Electrocardiogram leads were attached to the four limbs and Lead II of the electrocardiogram was monitored.
The neck region was exposed and the jugular vein was cannulated. The test compounds were dissolved in saline and administered intravenously at the indicated doses, via a cannula which was then flushed with saline. Five minutes after the test compound was administered, thevetin dissolved in saline was administered by infusion through a cannula at a dose of 0.1 mg/kg/minute in a volume of 0.1 ml. The time until the P wave of the electrocardiogram disappeared was determined.

[3] = test system: spontaneously hypertensive rats; assay: Hypotensive activity in spontaneously hypertensive rats (MABP); format: in vivo, rat (Okamoto strain); conditions: SHR, gavage, two doses of 10 mg/kg or less 24 h apart, MABP at 28 h; average baseline 160±1.5 mm Hg
Procedure, shortened: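 Male 16-week Okamoto spontaneously hypertensive rats dosed by gavage in 2% starch at 10 mg/kg or less with 0.9% NaCl loading 25 ml/kg; identical dose without saline given 24 hours later. Mean arterial blood pressure measured 28 hours after first dose; 1 to 4 rats per compound.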

[4] = intravenous doses as high as 20 mg/kg

Compound	inhibition at 100 µM [1] [%]	Avg. MABP in mm Hg (No. of Rats) [3] [mm Hg]	further results
O=C(CNC1=Nc2cccc3cccc1c23)NCCCn1ccnc1 [2-(Benz(cd)indol-2-ylamino)-N-(3-(1H-imidazol-1-yl)propyl)acetamide]	100	–	Time (Minutes) Before Induced Arrhythmia ([2]; IV dose 25 mg/kg): 33 min
Clc1ccc2c3c(cccc13)C(NCCCCn1ccnc1)=N2.O=C(O)/C=C/C(=O)O [6-Chloro-N-(4-(1H-imidazol-1-yl)butyl)benz(cd)indol-2-amine, fumarate]	100	115	Time (Minutes) Before Induced Arrhythmia ([2]; IV dose 10 mg/kg): 31.5 min
CC(C)NC[C@H](O)COc1cccc2ccccc12 (racemic) [Propanolol, reference compound]	–	–	activity in thevetin-induced arrhythmia test ([2]; intravenous dose of 2 mg/kg): active; time protected before arrhythmia occurred ([2]; intravenous dose of 2 mg/kg): 47.0 ± 4.1 min
CC(CNC1=Nc2cccc3cccc1c23)Cn1ccnc1.O=C(O)/C=C/C(=O)O (centres unmarked) [N-(3-(1H-imidazol-1-yl)-2-methylpropyl)benz(cd)indol-2-amine, fumarate]	–	–	% Inhibition (Thromboxane Synthetase Enzyme Inhibition) [1]: 100%; Time (Minutes) Before Induced Arrhythmia ([2]; IV dose 20 mg/kg): 34.5 min
CC(CCNC1=Nc2c(Cl)cc(Cl)c3cccc1c23)n1ccnc1 (centres unmarked) [6,8-Dichloro-N-(3-(1H-imidazol-1-yl)butyl)benz(cd)indol-2-amine]	–	102	Time (Minutes) Before Induced Arrhythmia ([2]; IV dose 20 mg/kg): 32 min
O=C(O)/C=C/C(=O)O.c1cc2c3c(cccc3c1)C(NCCCCCn1ccnc1)=N2 [N-(5-(1H-imidazol-1-yl)pentyl)benz(cd)indol-2-amine, fumarate]	95	111	–
O=C(O)/C=C/C(=O)O.c1ccc(OCCNC2=Nc3cccc4cccc2c34)nc1 [N-(2-(2-Pyridinyloxy)ethyl)benz(cd)indol-2-amine fumarate]	88	140	–
CC(CCCNC1=Nc2cccc3cccc1c23)n1ccnc1.O=C(O)/C=C/C(=O)O (centres unmarked) [N-(4-(1H-imidazol-1-yl)pentyl)benz(cd)indol-2-amine, fumarate]	99	97	–
C(=C/Cn1ccnc1)/CNC1=Nc2cccc3cccc1c23 [(Z)-N-(4-(1H-imidazol-1-yl)-2-butenyl)benz(cd)indol-2-amine, hydriodide]	–	106	% Inhibition (Thromboxane Synthetase Enzyme Inhibition) [1]: 100%
O=C(O)/C=C/C(=O)O.c1ccc(CCNC2=Nc3cccc4cccc2c34)nc1 [N-(2-(2-Pyridinyl)ethyl)benz(cd)indol-2-amine, fumarate]	94	137	–
Clc1cc(Cl)c2cccc3c2c1N=C3NCCCCCn1ccnc1 [6,8-Dichloro-N-(5-(1H-imidazol-1-yl)pentyl)benz(cd)indol-2-amine]	–	119	Time (Minutes) Before Induced Arrhythmia ([2]; IV dose 20 mg/kg): 33.4 min
CC(=Cc1ccc(Cc2cccnc2)cc1)C(=O)O [OKY-1581, 2-methyl-3-(4-(3-pyridinylmethyl)phenyl-2-propenoic acid, sodium salt, reference compound]	–	–	activity in thevetin-induced arrhythmia test [2, 4]: inactive; time before arrhythmia occurred [2, 4]: 24.3 ± 2.2 min
O=C(O)/C=C/C(=O)O.c1csc(CNC2=Nc3cccc4cccc2c34)c1 [N-(2-Thienylmethyl)benz(cd)indol-2-amine, fumarate]	93	141	–
O=C(O)/C=C/C(=O)O.c1ccc(C(CCn2ccnc2)NC2=Nc3cccc4cccc2c34)cc1 (centres unmarked) [N-(3-(1H-imidazol-1-yl)-1-phenylpropyl)benz(cd)indol-2-amine, fumarate]	100	–	Time (Minutes) Before Induced Arrhythmia ([2]; IV dose 30 mg/kg): 34 min
O=C(O)c1ccc(OCCn2ccnc2)cc1 [Dazoxiben hydrochloride, 4-(2-(1H-imidazol-l-yl)ethoxy)benzoic acid, monohydrochloride, reference compound]	–	–	activity in thevetin-induced arrhythmia test [2, 4]: inactive; time before arrhythmia occurred [2, 4]: 22.2 ± 1.9 min

More lines, main results first:

inhibition at 100 µM [1] [%]	Compound	Avg. MABP in mm Hg (No. of Rats) [3] [mm Hg]	further results
100	C(=C\Cn1ccnc1)/CNC1=Nc2cccc3cccc1c23 [(E)-N-(4-(1H-imidazol-1-yl)-2-butenyl)benz(cd)indol-2-amine, hydriodide]	–	Time (Minutes) Before Induced Arrhythmia ([2]; IV dose 10 mg/kg): 34.3 min
99	CC(CCNC1=Nc2ccc(S(=O)(=O)N(C)C)c3cccc1c23)n1ccnc1 (centres unmarked) [N,N-Dimethyl-2-((3-(1H-imidazol-1-yl)butyl)amino)benz(cd)indol-6-sulfonamide]	–	Time (Minutes) Before Induced Arrhythmia ([2]; IV dose 10 mg/kg): 33.6 min
100	CN(C)S(=O)(=O)c1ccc2c3c(cccc13)C(NCCCn1ccnc1)=N2 [N,N-Dimethyl-2-((3-(1H-imidazol-1-yl)propyl)amino)benz(cd)indol-6-sulfonamide]	–	Time (Minutes) Before Induced Arrhythmia ([2]; IV dose 20 mg/kg): 33.4 min
94.5	O=C(c1ccccc1)N(CCCn1ccnc1)C1=Nc2cccc3cccc1c23 [N-Benz(cd)indol-2-yl-N-(3-(1H-imidazol-1-yl)propyl)benzamide]	95	–
88	c1cc2c3c(cccc3c1)C(NCCc1ccncc1)=N2 [N-(2-(4-Pyridinyl)ethyl)benz(cd)indol-2-amine, sesqui-fumarate]	115	–
98	Brc1ccc2c3c(cccc13)C(NCCCCn1ccnc1)=N2 [6-Bromo-N-(4-(1H-imidazol-1-yl)butyl)benz(cd)indol-2-amine]	120	–
93	O=S(=O)(c1ccccc1)N(CCCn1ccnc1)C1=Nc2cccc3cccc1c23 [N-Benz(cd)indol-2-yl-N-(3-(1H-imidazol-1-yl)propyl)benzenesulfonamide]	135	–
99	Clc1cc(Cl)c2cccc3c2c1N=C3NCCCCn1ccnc1 [6,8-Dichloro-N-(4-(1H-imidazol-1-yl)butyl)benz(cd)indol-2-amine]	115	–
97	c1cc2c3c(cccc3c1)C(NCc1ccncc1)=N2 [N-(4-Pyridinylmethyl)benz(cd)indol-2-amine, sesqui-fumarate]	90	–
100	CC(CCNC1=Nc2cccc3cccc1c23)CCn1ccnc1 (centres unmarked) [N-(5-(1H-imidazol-1-yl)-3-methylpentyl)benz(cd)indol-2-amine,dihydrochloride]	92	–
96	Clc1cc(Cl)c2cccc3c2c1N=C3NCCCCCCCCCCn1ccnc1 [6,8-Dichloro-N-(10-(1H-imidazol-1-yl)decyl)benz(cd)indol-2-amine]	121	–
89	c1ccc(CCCCNC2=Nc3cccc4cccc2c34)nc1 [N-(4-(2-Pyridinyl)butyl)benz(cd)indol-2-amine, sesqui-fumarate]	106	–
79	Cc1ccc(S(=O)(=O)Nc2ccc3c4c(cccc24)C(NCCCCn2ccnc2)=N3)cc1 [monoacetate]	125	–
97	c1cc2c3c(cccc3c1)C(NCCCCCCCCCCCCn1ccnc1)=N2 [N-(12-(1H-imidazol-1-yl)dodecyl)benz(cd)indol-2-amine]	133	–
